Measured values: patent US20050101595A1, “N-containing cycloalkyl-substituted amino-thiazole derivatives and pharmaceutical compositions for inhibiting cell proliferation and methods for their use” (PFIZER INC., priority 2003, published 2005)
Like-named read-outs stand apart in the source and are kept apart here.

Tests used:
[1] = molecular target: human CDK4 and genetically truncated (1-264) cyclin D3 (Homo sapiens, UniProt P11802); experiment: Inhibition of CDK4/Cyclin D Retinoblastoma Kinase Activity; type: biochemical; conditions: for Ki: apparent Ki, CDK4/truncated cyclin D3, Rb fragment substrate, 25 μM ATP
human CDK4 and genetically truncated (1-264) cyclin D3, sequence (P11802 whole entry, the tested form may be a part): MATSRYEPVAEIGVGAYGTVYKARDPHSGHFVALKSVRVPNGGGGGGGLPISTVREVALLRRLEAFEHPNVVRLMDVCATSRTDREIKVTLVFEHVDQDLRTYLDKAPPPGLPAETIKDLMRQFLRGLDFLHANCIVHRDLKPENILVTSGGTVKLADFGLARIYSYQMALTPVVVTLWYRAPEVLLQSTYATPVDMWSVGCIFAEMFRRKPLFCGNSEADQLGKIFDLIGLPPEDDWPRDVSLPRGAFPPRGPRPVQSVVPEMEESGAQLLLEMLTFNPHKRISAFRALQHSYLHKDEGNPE
human CDK4 and genetically truncated (1-264) cyclin D3, sequence (P30281 1-264 partner): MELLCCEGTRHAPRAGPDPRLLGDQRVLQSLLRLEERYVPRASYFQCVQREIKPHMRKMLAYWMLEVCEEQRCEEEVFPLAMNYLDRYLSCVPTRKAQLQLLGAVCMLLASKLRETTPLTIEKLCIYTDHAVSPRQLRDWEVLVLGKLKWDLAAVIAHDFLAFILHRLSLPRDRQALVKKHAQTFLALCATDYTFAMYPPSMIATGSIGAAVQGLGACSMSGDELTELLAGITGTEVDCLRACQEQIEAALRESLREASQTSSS
Method in brief: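 Read-out: 32P/33P incorporation into Rb fragment (386-928) captured on nitrocellulose, phosphorimager. Enzyme 5 nM CDK4/cyclin D3(1-264) from insect cells; ATP 25 μM, pH 7.4, 30 °C, 20 min (60 min for tight binders). Ki from competitive fits.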

HCT-116 cell line = experiment: Inhibition of cell growth, tetrazolium salt (MTT) assay; type: cell-based; conditions: for IC50: Homo sapiens, HCT-116, 120 h, MTT, three to five days, read-out: HCT-116 IC50; for HCT-116 % Inhibition at 0.25 μM: 0.25 μM compound
Method in brief: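 HCT-116 cells in McCoy's 5A medium received compound 4 h after plating (0.5% v/v DMSO) and were incubated three to five days at 37° C, 5% CO2. MTT (0.2 mg/mL final) then added for 4 h; DMSO-solubilized formazan read at 540 nm against 0.5% DMSO-treated controls.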

CDK2/Cyclin A = CDK2/Cyclin A (Homo sapiens, UniProt P24941); experiment: Inhibition of CDK2/Cyclin A Retinoblastoma Kinase Activity; type: biochemical; conditions: for Ki: apparent Ki, CDK2/proteolyzed cyclin A, Rb fragment substrate, 25 μM ATP; for CDK2 % Inhibition At 0.03 μM: Table 2
Method in brief: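 Human CDK2, baculovirus/insect-cell expressed, complexed with proteolyzed cyclin A (10 nM or 19 nM CDK2) phosphorylates an Rb fragment with 25 μM [32P/33P]ATP at pH 7.4, 30° C, for 60 or 75 minutes under initial-rate conditions. Filter-captured radioactivity is read by phosphorimager; apparent Ki from competitive-inhibition fits.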

[2] = 0.1 μM compound, HCT-116, Table 4

Nc1nc(NC2CCN(C(=O)c3c(Cl)cccc3Cl)CC2)sc1C(=O)c1c(F)cccc1F [Example R110]
CDK4 % Inhibition at 0.03 μM ([1]; at 0.03 μM): 30%
HCT-116 % Inhibition at 0.1 μM (HCT-116 cell line; HCT-116 cells, at 0.1 μM): 3%
HCT-116 5 Inhibition at 0.25 μM (HCT-116 cell line; HCT-116 cells): 48
CDK2 % Inhibition at 0.03 μM (CDK2/Cyclin A; at 0.03 μM): 24%

Nc1nc(NC2CCN(S(=O)(=O)c3cc(Cl)sc3Cl)CC2)sc1C(=O)c1c(F)cccc1F [Example F13, 1-{4-Amino-2-[1-(2,5-dichloro-thiophene-3-sulfonyl)-piperidin-4-ylamino]-thiazol-5-yl}-1-(2,6-difluoro-phenyl)-methanone]
Ki [1]: 5.8 nM
IC50 (HCT-116 cell line; first HCT-116 column (c4)): 610 nM
IC50 (HCT-116 cell line; second HCT-116 column (c5)): 2600 nM
Ki (CDK2/Cyclin A): 8.7 nM

Cc1c(S(=O)(=O)c2ccc(Cl)cc2)csc1C(=O)N1CCC(Nc2nc(N)c(C(=O)c3c(F)cccc3F)s2)CC1 [Example R47]
CDK4 % Inhibition at 0.03 μM ([1]; at 0.03 μM): 20%
HCT-116 % Inhibition at 0.1 μM (HCT-116 cell line; HCT-116 cells, at 0.1 μM): 8%
HCT-116 5 Inhibition at 0.25 μM (HCT-116 cell line; HCT-116 cells): 45
CDK2 % Inhibition at 0.03 μM (CDK2/Cyclin A; at 0.03 μM): −7%

CN(C)C(=O)N1CCC(Nc2nc(N)c(C(=O)c3c(F)cccc3F)s2)CC1 [Example Q2]
CDK4 % Inhibition at 0.03 μM ([1]; 0.03 μM compound, Table 4): 13%
HCT-116 % Inhibition at 0.1 μM (HCT-116 cell line; [2]): 0.71%
HCT-116 % Inhibition at 0.25 μM (HCT-116 cell line; HCT-116, Table 4): 43%
CDK2 % Inhibition at 0.03 μM (CDK2/Cyclin A; 0.03 μM compound, Table 4): −43%

Nc1nc(NC2CCN(S(=O)(=O)c3ccc(C4=NCCO4)cc3)CC2)sc1C(=O)c1c(F)cccc1F [Example J5, 1-(4-Amino-2-{1-[4-(4,5-dihydro-oxazol-2-yl)-benzenesulfonyl]-piperidin-4-ylamino}-thiazol-5-yl)-1-(2,6-difluoro-phenyl)-methanone]
Ki [1]: 3.9 nM
IC50 (HCT-116 cell line; first HCT-116 column (c4)): 210 nM
IC50 (HCT-116 cell line; second HCT-116 column (c5)): 480 nM
Ki (CDK2/Cyclin A): 2.8 nM

COC(=O)c1ccc(C(=O)N2CCC(Nc3nc(N)c(C(=O)c4c(F)cccc4F)s3)CC2)cc1 [Example R151]
CDK4 % Inhibition at 0.03 μM ([1]; at 0.03 μM): 39%
HCT-116 % Inhibition at 0.1 μM (HCT-116 cell line; HCT-116 cells, at 0.1 μM): 0%
HCT-116 5 Inhibition at 0.25 μM (HCT-116 cell line; HCT-116 cells): 43
CDK2 % Inhibition at 0.03 μM (CDK2/Cyclin A; at 0.03 μM): 24%

Nc1nc(NC2CCN(C(=O)Nc3ccc4ccccc4c3)CC2)sc1C(=O)c1c(F)cccc1F [Example O54]
CDK4 % Inhibition at 0.03 μM ([1]; 0.03 μM compound, Table 2): 15%
HCT-116 % Inhibition at 0.25 μM (HCT-116 cell line; HCT-116, Table 2): 46%
CDK2 % Inhibition At 0.03 μM (CDK2/Cyclin A; 0.03 μM compound): 34%

Nc1nc(NC2CCN(C(=O)Nc3ccc(F)cc3)CC2)sc1C(=O)c1c(F)cccc1F [Example O19]
CDK4 % Inhibition at 0.03 μM ([1]; 0.03 μM compound, Table 2): 9%
HCT-116 % Inhibition at 0.25 μM (HCT-116 cell line; HCT-116, Table 2): 7%
CDK2 % Inhibition At 0.03 μM (CDK2/Cyclin A; 0.03 μM compound): 31%

CC(Oc1ccccc1)C(=O)N1CCC(Nc2nc(N)c(C(=O)c3c(F)cccc3F)s2)CC1 (stereo not drawn) [Example R159]
CDK4 % Inhibition at 0.03 μM ([1]; at 0.03 μM): 36%
HCT-116 % Inhibition at 0.1 μM (HCT-116 cell line; HCT-116 cells, at 0.1 μM): 0%
HCT-116 5 Inhibition at 0.25 μM (HCT-116 cell line; HCT-116 cells): 46
CDK2 % Inhibition at 0.03 μM (CDK2/Cyclin A; at 0.03 μM): 14%

COC(=O)CCCCCCCCC(=O)N1CCC(Nc2nc(N)c(C(=O)c3c(F)cccc3F)s2)CC1 [Example R76]
CDK4 % Inhibition at 0.03 μM ([1]; at 0.03 μM): 64%
HCT-116 % Inhibition at 0.1 μM (HCT-116 cell line; HCT-116 cells, at 0.1 μM): 0%
HCT-116 5 Inhibition at 0.25 μM (HCT-116 cell line; HCT-116 cells): 38
CDK2 % Inhibition at 0.03 μM (CDK2/Cyclin A; at 0.03 μM): 53%

Nc1nc(NC2CCN(C(=O)CC3CCCCC3)CC2)sc1C(=O)c1c(F)cccc1F [Example R100]
CDK4 % Inhibition at 0.03 μM ([1]; at 0.03 μM): 10%
HCT-116 % Inhibition at 0.1 μM (HCT-116 cell line; HCT-116 cells, at 0.1 μM): 0%
HCT-116 5 Inhibition at 0.25 μM (HCT-116 cell line; HCT-116 cells): 49
CDK2 % Inhibition at 0.03 μM (CDK2/Cyclin A; at 0.03 μM): −5%

Cc1nccn1-c1ccc(S(=O)(=O)N2CCC(Nc3nc(N)c(C(=O)c4c(F)cccc4F)s3)CC2)cn1 [Example G26, 1-(4-Amino-2-{1-[6-(2-methyl-imidazol-1-yl)-pyridine-3-sulfonyl]-piperidin-4-ylamino}-thiazol-5-yl)-1-(2,6-difluoro-phenyl)-methanone]
Ki [1]: 1.3 nM
IC50 (HCT-116 cell line; first HCT-116 column (c4)): 140 nM
IC50 (HCT-116 cell line; second HCT-116 column (c5)): 220 nM
Ki (CDK2/Cyclin A): 0.64 nM

COc1ccccc1NC(=O)N1CCC(Nc2nc(N)c(C(=O)c3c(F)cccc3F)s2)CC1 [Example O7]
CDK4 % Inhibition at 0.03 μM ([1]; 0.03 μM compound, Table 2): 10%
HCT-116 % Inhibition at 0.25 μM (HCT-116 cell line; HCT-116, Table 2): 43%
CDK2 % Inhibition At 0.03 μM (CDK2/Cyclin A; 0.03 μM compound): 40%

Nc1nc(NC2CCN(C(=O)CC3CCCC3)CC2)sc1C(=O)c1c(F)cccc1F [Example R78]
CDK4 % Inhibition at 0.03 μM ([1]; at 0.03 μM): 19%
HCT-116 % Inhibition at 0.1 μM (HCT-116 cell line; HCT-116 cells, at 0.1 μM): 0%
HCT-116 5 Inhibition at 0.25 μM (HCT-116 cell line; HCT-116 cells): 47
CDK2 % Inhibition at 0.03 μM (CDK2/Cyclin A; at 0.03 μM): 20%

Nc1nc(NC2CCN(C(=O)Oc3ccccc3)CC2)sc1C(=O)c1c(F)cccc1F [Example Q4]
CDK4 % Inhibition at 0.03 μM ([1]; 0.03 μM compound, Table 4): 78%
HCT-116 % Inhibition at 0.1 μM (HCT-116 cell line; [2]): 0%
HCT-116 % Inhibition at 0.25 μM (HCT-116 cell line; HCT-116, Table 4): 41%
CDK2 % Inhibition at 0.03 μM (CDK2/Cyclin A; 0.03 μM compound, Table 4): 59%
